Where a SMILES comes first, the peptide text is derived from it. [ ]: non-standard residue; d: D form. pGlu = O=C1CC[C@@H](C(=O)O)N1
Tested on: bees
Test: Bee oral toxicity test adapted from OECD Test No. 247 (Bumblebee, Acute Oral Toxicity Test)
Format: in vivo
Conditions: % survival after 96 hours, compared to Imidacloprid, Figure 9
Experimental: Bee oral testing protocol was carried out adapted from OECD Test No. 247: Bumblebee, Acute Oral Toxicity Test. The toxicity of SB-P-47 was compared with a negative control of sucrose or vehicle, and with a current commercial insecticide Imidacloprid.

CC[C@H](C)[C@H](NC(=O)[C@H](C)NC(=O)[C@@H]1CCC(=O)N1)C(=O)N[C@@H](CCSC)C(=O)N[C@@H](C)C(=O)N[C@@H](CCCNC(=N)N)C(=O)N1CCC[C@H]1C(=O)N[C@@H](CCC(N)=O)C(=O)N[C@H](C(=O)N1CCC[C@H]1C(=O)N[C@@H](CCCNC(=N)N)C(=O)N[C@@H](CC(C)C)C(N)=O)C(C)C [SB-P-47, [Pyr]-AIMARPQVPRL-[NH2]] ([pGlu]AIMARPQVPRL-NH2)
toxicity to key pollinator species such as bees: far lower toxicity

Reference: EP4545548B1, “INSECT NEUROPEPTIDES” (Solasta Bio Limited, priority 2023, dated 2025)
